Data as given in paper PMC8769072, “Proteome‐scale mapping of binding sites in the unstructured regions of the human proteome” (Molecular Systems Biology, 2022).
pIC50, pKi: −log10 of the molar value. Like-named read-outs stand apart in the source and are kept apart here. Where a SMILES comes first, the peptide text is derived from it. Where no end group is shown, it is not given here. [ ]: non-standard residue; d: D form. pY = N[C@@H](Cc1ccc(OP(=O)(O)O)cc1)C(=O)O; pS = N[C@@H](COP(=O)(O)O)C(=O)O

Tests used:
Format in all cases: binding
KPNB1 HEAT = target: T1, KPNB1 HEAT (Homo sapiens, UniProt Q14974); assay: FP competition, KPNB1 HEAT; conditions: for pKi: FP competition with FITC-NUP153 probe, low-affinity value
T1 construct: Q14974; KPNB1; HEAT; 485; pETM41; Genescript; 6-His-MBP (from vector pETM41) (cleaved yes); made in house; host or cells: bacteria (E. coli BL21(DE3) gold is named only for the phage-selection preparations)

KPNA4 ARM [1] = target: T2, KPNA4 ARM (Homo sapiens, UniProt O00629); assay: FP competition, KPNA4 ARM minor pocket (FITC-NCOR2 probe); conditions: for effect of phosphorylation on the affinity for KPNA4, in words: FP competition with FITC-NCOR2 probe, phosphorylated versus unphosphorylated NCOR1 peptide
T2 construct: O00629; KPNA4; Arm; 68; 487; pETM33/pETM41; Genescript; made in house; host or cells: bacteria (E. coli BL21(DE3) gold is named only for the phage-selection preparations)
From the text: (§1) Like other importins, KPNA4 has two distinct NLS‐binding pockets on the surface of an armadillo (ARM) repeat fold (major pocket, ARM 2–4; minor pocket, ARM 6–8; Fig 5B) (Smith et al, [2018]). Bipartite NLSs are usually 17–19 amino acids long and engage both pockets. Monopartite NLSs are short basic stretches, divided into five classes (Kosugi et al, [2009]): class I KR[KR]R or K[KR]RK, class II [PR]xxKR[^DE][KR] (where ^ indicates “not”), class III KRx[WFY]xxAF, class IV [RP]xxKR[KR][^DE], and class V LGKR[KR][WFY]. The class I and class II motifs preferentially interact with the major pocket (Kosugi et al, [2009]). In contrast, class III and class IV NLSs preferentially bind to the minor pocket. Using KPNA4 as a bait against the HD2 P8 library we identified 33 peptides found in 32 proteins. Of the 26 proteins for which information was available, 22 proteins were annotated as having nuclear or nucleolar localization in the UniProt database. To gain additional information we combined the data generated for KPNA4 by screening against the complete P8 HD2 library, with the results generated using two relevant sublibraries (the cytoplasmic and nuclear, and nuclear sublibraries) resulting in a set of 92 peptides containing NLS‐like sequences found in 76 proteins. Using these peptides we could generate consensus motifs that matched four of the previously reported NLS classes (Fig 5A; class I‐IV). […] Three peptides bound only to the major pocket. Eight peptides with class III motif and one KRxH‐containing peptide only bound to the minor pocket. Five peptides outcompeted both probe peptides, which may be explained by the amino acid sequence matching both class II and class III motifs (e.g., 1135‐ PSPKRKL ‐1139 in ZNF532; Fig 5), and possibly by cross specificity of the two binding pockets.

KPNA4 ARM [2] = target: T2, KPNA4 ARM; assay: FP competition, KPNA4 ARM major pocket (FITC-Myc probe); conditions: FP competition with FITC-Myc320-328 probe for the major pocket; 50 mM KPO4 pH 7.5; n = 3 technical replicates
From the text: as §1

TLN1 PTB = target: T3, TLN1 PTB (Homo sapiens, UniProt Q9Y490); assay: FP competition, TLN1 PTB
T3 construct: Q9Y490; TLN1; PTB; 309; pHH0103; Sidhu Lab (PMID: 33438817); made in house; host or cells: bacteria (E. coli BL21(DE3) gold is named only for the phage-selection preparations)

KEAP1 Kelch = target: T4, KEAP1 Kelch (Homo sapiens, UniProt Q14145); assay: FP competition, KEAP1 Kelch; conditions: for binding to KEAP1 Kelch, result in words: FP competition with FITC-NFE2L1 probe
T4 construct: Q14145; KEAP1; Kelch; 321; 609; pETM33; Genescript; made in house; host or cells: bacteria (E. coli BL21(DE3) gold is named only for the phage-selection preparations)
T4 sequence (Q14145 321-609): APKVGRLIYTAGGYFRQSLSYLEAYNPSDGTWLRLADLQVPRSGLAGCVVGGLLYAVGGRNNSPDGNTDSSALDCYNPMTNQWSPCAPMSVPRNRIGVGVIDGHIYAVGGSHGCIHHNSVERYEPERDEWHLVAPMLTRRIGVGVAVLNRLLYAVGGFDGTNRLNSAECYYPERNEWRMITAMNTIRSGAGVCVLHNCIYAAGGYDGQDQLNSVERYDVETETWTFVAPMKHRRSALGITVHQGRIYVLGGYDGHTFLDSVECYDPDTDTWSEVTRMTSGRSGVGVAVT

T2 sequence (O00629 68-487): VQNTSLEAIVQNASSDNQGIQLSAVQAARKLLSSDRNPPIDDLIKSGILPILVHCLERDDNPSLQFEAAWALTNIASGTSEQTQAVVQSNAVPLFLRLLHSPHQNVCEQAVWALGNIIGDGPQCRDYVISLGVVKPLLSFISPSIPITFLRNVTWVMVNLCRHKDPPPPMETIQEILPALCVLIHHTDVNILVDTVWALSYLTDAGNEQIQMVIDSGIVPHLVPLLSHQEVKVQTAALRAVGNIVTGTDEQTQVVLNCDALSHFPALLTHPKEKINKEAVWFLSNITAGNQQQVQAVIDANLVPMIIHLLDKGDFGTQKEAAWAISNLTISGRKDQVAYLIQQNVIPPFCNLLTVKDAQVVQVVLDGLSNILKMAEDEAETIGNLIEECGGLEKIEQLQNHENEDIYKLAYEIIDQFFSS
T1 sequence (Q14974 1-485): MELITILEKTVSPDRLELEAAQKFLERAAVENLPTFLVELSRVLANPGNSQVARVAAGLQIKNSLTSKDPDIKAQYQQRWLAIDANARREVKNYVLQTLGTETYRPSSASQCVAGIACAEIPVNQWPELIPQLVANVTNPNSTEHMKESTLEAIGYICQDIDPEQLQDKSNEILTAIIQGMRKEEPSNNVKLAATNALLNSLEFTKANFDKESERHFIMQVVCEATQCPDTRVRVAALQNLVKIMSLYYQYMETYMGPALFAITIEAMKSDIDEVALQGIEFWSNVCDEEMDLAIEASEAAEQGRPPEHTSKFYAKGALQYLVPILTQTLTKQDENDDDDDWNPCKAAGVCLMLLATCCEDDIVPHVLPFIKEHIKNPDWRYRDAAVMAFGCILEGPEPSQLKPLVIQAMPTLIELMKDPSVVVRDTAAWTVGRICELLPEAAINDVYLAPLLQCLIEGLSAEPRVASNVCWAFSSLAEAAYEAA
T3 sequence (Q9Y490 309-401): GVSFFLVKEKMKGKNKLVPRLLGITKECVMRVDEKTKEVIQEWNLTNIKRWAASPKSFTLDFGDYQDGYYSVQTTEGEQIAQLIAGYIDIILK

| Compound | pIC50 (KPNA4 ARM [1]) | pIC50 (KEAP1 Kelch) | other results |
| --- | --- | --- | --- |
| CC(=O)NCC(=O)N[C@@H](Cc1ccc(O)cc1)C(=O)N[C@H](C(=O)N[C@@H](Cc1ccccc1)C(=O)N[C@@H](CCC(N)=O)C(=O)N[C@H](C(=O)N[C@@H](CCC(N)=O)C(=O)N[C@@H](CC(=O)O)C(=O)NCC(=O)N[C@@H](C)C(=O)N1CCC[C@H]1C(=O)NCC(=O)N[C@H](C(=O)N[C@@H](Cc1ccccc1)C(=O)N[C@@H](CC(N)=O)C(=O)N[C@@H](Cc1ccccc1)C(=O)O)[C@@H](C)O)C(C)C)[C@@H](C)O [KPNA2_514–529] |  |  | pKi (KPNB1 HEAT): 3.00 |
| CC[C@H](C)[C@H](NC(=O)[C@H](CC(N)=O)NC(=O)CNC(=O)[C@H](CCC(=O)O)NC(=O)[C@@H](NC(=O)[C@H](CO)NC(=O)[C@H](CCC(=O)O)NC(=O)[C@H](Cc1ccc(O)cc1)NC(=O)[C@H](CO)NC(=O)[C@H](CCCNC(=N)N)NC(=O)[C@H](CCCCN)NC(=O)[C@H](CC(C)C)NC(=O)[C@H](COP(=O)(O)O)NC(=O)[C@@H](NC(=O)[C@H](CCC(=O)O)NC(C)=O)[C@@H](C)CC)C(C)C)C(=O)N[C@@H](CCCCN)C(N)=O [NCOR1 pS1242] (Ac-EI[pS]LKRSYESVEGNIK-NH2) | 4.51 |  | effect of phosphorylation on the affinity for KPNA4, in words (KPNA4 ARM [1]): minor effects |
| CC[C@H](C)[C@H](NC(=O)[C@H](CC(N)=O)NC(=O)CNC(=O)[C@H](CCC(=O)O)NC(=O)[C@@H](NC(=O)[C@H](CO)NC(=O)[C@H](CCC(=O)O)NC(=O)[C@H](Cc1ccc(O)cc1)NC(=O)[C@H](COP(=O)(O)O)NC(=O)[C@H](CCCNC(=N)N)NC(=O)[C@H](CCCCN)NC(=O)[C@H](CC(C)C)NC(=O)[C@H](CO)NC(=O)[C@@H](NC(=O)[C@H](CCC(=O)O)NC(C)=O)[C@@H](C)CC)C(C)C)C(=O)N[C@@H](CCCCN)C(N)=O [NCOR1 pS1246] (Ac-EISLKR[pS]YESVEGNIK-NH2) | 3.62 |  | effect of phosphorylation on the affinity for KPNA4, in words (KPNA4 ARM [1]): marked loss of affinity |
| CC[C@H](C)[C@H](NC(=O)[C@H](CC(N)=O)NC(=O)CNC(=O)[C@H](CCC(=O)O)NC(=O)[C@@H](NC(=O)[C@H](CO)NC(=O)[C@H](CCC(=O)O)NC(=O)[C@H](Cc1ccc(OP(=O)(O)O)cc1)NC(=O)[C@H](CO)NC(=O)[C@H](CCCNC(=N)N)NC(=O)[C@H](CCCCN)NC(=O)[C@H](CC(C)C)NC(=O)[C@H](CO)NC(=O)[C@@H](NC(=O)[C@H](CCC(=O)O)NC(C)=O)[C@@H](C)CC)C(C)C)C(=O)N[C@@H](CCCCN)C(N)=O [NCOR1 pY1247] (Ac-EISLKRS[pY]ESVEGNIK-NH2) | 4.68 |  | effect of phosphorylation on the affinity for KPNA4, in words (KPNA4 ARM [1]): minor effects |
| CC(C)C[C@H](NC(=O)[C@H](CCCNC(=N)N)NC(=O)[C@@H]1CCCN1C(=O)[C@H](CCCNC(=N)N)NC(=O)[C@H](CCCCN)NC(=O)[C@H](CC(N)=O)NC(=O)[C@@H]1CCCN1C(=O)[C@H](Cc1ccccc1)NC(=O)[C@@H](NC(=O)[C@H](CC(=O)O)NC(=O)[C@H](CCC(=O)O)NC(=O)[C@@H](N)CO)[C@@H](C)O)C(=O)N[C@@H](CCC(=O)O)C(=O)N[C@@H](CC(=O)O)C(=O)N[C@@H](CCCCN)C(=O)N[C@H](C(=O)N[C@H](C(N)=O)C(C)C)[C@@H](C)O [SPRTN] |  |  | pIC50 (KPNA4 ARM [2]): 6.59 |
| AGVKRSAAEMYGSVTE-NH2 [HNRNPC] | 6.30 |  |  |
| AKWDTANNPLYKEATS-NH2 [ITB3] |  |  | pIC50 (TLN1 PTB): 2.84; pKi (TLN1 PTB; FP competition with FITC-PIP5K1C probe): 3.30 |
| Ac-AYAPPVFVFQKDKGQK-NH2 [RANBP3] |  |  | pIC50 (KPNB1 HEAT): 2.66; pKi (KPNB1 HEAT): ~3.00 |
| Ac-EISLKRSYESVEGNIK-NH2 [NCOR1 Wt] | 4.96 |  |  |
| Ac-GIIDPSTGECFPVTDY-NH2 |  | 5.64 | binding to KEAP1 Kelch, result in words (KEAP1 Kelch): no effect on binding |
| Ac-GIIDPSTGERFPVTDY-NH2 [PLEC 4457-4471] |  | 5.82 |  |
| Ac-NPPVATFVFGQSSNPY-NH2 [NUP153] |  |  | pIC50 (KPNB1 HEAT): 4.31 |
| Ac-VLPDCLTDGSDVVSDY-NH2 [CFAP36] |  |  | pKi (KEAP1 Kelch; FP competition with FITC-NFE2L1 228-243 probe, protein at 4x KD and 10 nM probe in master mix, 50 mM KPO4 pH 7.5, Ki calculated from IC50, triplicates): < 2.69; pIC50 (KEAP1 Kelch; FP competition with FITC-NFE2L1 228-243 probe, protein at 4x KD and 10 nM probe in master mix, 50 mM KPO4 pH 7.5, triplicates): < 2.69; binding to KEAP1 Kelch, result in words (KEAP1 Kelch): did not bind at all |
| Ac-YDEEKGEFLPIQPAQH-NH2 [NFE2L2 T80K] |  | 2.60 |  |
| Ac-YDEETGEFLPIQPAQH-NH2 [NFE2L2 Wt] |  | 6.51 |  |
| Ac-YDEKTGEFLPIQPAQH-NH2 [NFE2L2 E79K] |  | 2.78 |  |
| Ac-YMQHLQEQQQQQMHLQ-NH2 [TREF1] |  | 3.31 |  |
| DHQFPAKRPRLSEPQG-NH2 [HJURP] | 3.77 |  | pIC50 (KPNA4 ARM [2]): 7.12 |

The next lines start with results.

| pIC50 (KPNA4 ARM [1]) | pIC50 (KEAP1 Kelch) | Compound | other results |
| --- | --- | --- | --- |
| 5.89 |  | CC(C)C[C@H](NC(=O)[C@H](CCCCN)NC(=O)[C@H](CCCNC(=N)N)NC(=O)[C@H](CCCCN)NC(=O)[C@@H]1CCCN1C(=O)[C@H](CO)NC(=O)[C@@H]1CCCN1)C(=O)N[C@@H](CCC(=O)O)C(=O)N[C@@H](CCC(=O)O)C(=O)N1CCC[C@H]1C(=O)N[C@H](C(=O)N[C@@H](CC(C)C)C(=O)N[C@@H](CCC(=O)O)C(=O)N[C@@H](Cc1ccccc1)C(=O)N[C@@H](CCCNC(=N)N)C(=O)N1CCC[C@H]1C(N)=O)C(C)C [ZNF532] |  |
|  | 5.52 | Ac-LIYVDKENGEPGTRVV-NH2 [PTTG1] |  |
|  | 2.35 | Ac-PPLPPPPLPPAPSLPY-NH2 [ATF5] |  |
